The test relates to SupT1 cells. Description: Proliferation of T-ALL cells treated with SRC-family kinase inhibitor. It is filed as cell-based, human. Conditions: PTCRA-dependent T-ALL cell lines.

Here are results for one compound from patent US11814428B2, “Anti-PTCRA antibody-drug conjugates and uses thereof” (REGENERON PHARMACEUTICALS, INC., priority 2019, dated 2023).

On to `Cc1ccc(-c2nn(C(C)(C)C)c3ncnc(N)c23)cc1` [PP1], for which the anti-proliferative response result is given as “dose-dependent anti-proliferative response”.
